Source: patent US8865623B2, “Herbicidally active cyclic diones and derivatives thereof, processes for their preparation, compositions, and method of controlling weeds” (Syngenta Limited, priority 2009, dated 2014)

Tests used:
Type in all cases: in vivo
[1] = system: Alopecurus myosuroides (ALOMY); test: Pre-emergence herbicidal activity, glasshouse pot test; settings: Alopecurus myosuroides, 312 h, Rate 250 g/ha, evaluated after 13 days, read-out: Pre-emergence activity ALOMY (100=total damage to plant; 0=no damage to plant)
Procedure: (§1) Seeds of a variety of test species were sown in standard soil in pots. After cultivation for one day (pre-emergence) or after 8 days cultivation (post-emergence) under controlled conditions in a glasshouse (at 24/16° C., day/night; 14 hours light; 65% humidity), the plants were sprayed with an aqueous spray solution derived from the formulation of the technical active ingredient in acetone/water (50:50) solution containing 0.5% Tween 20 (polyoxyethelyene sorbitan monolaurate, CAS RN 9005-64-5). The test plants were then grown in a glasshouse under controlled conditions in a glasshouse (at 24/16° C., day/night; 14 hours light; 65% humidity) and watered twice daily. After 13 days for pre and post-emergence, the test was evaluated (100=total damage to plant; 0=no damage to plant).
(§2) Lolium perenne (LOLPE), Alopecurus myosuroides (ALOMY), Echinochloa crus-galli (ECHCG), and Avena fatua (AVEFA).

Avena fatua (AVEFA) [2] = test: as above; settings: Avena fatua, 312 h, Rate 250 g/ha, evaluated after 13 days, read-out: Pre-emergence activity AVEFA (100=total damage to plant; 0=no damage to plant)
Procedure: as §1, §2

[3] = system: Echinochloa crus-galli (ECHCG); test: as above; settings: Echinochloa crus-galli, 312 h, Rate 250 g/ha, evaluated after 13 days, read-out: Pre-emergence activity ECHCG (100=total damage to plant; 0=no damage to plant)
Procedure: as §1, §2

Lolium perenne (LOLPE) [4] = test: as above; settings: Lolium perenne, 312 h, Rate 250 g/ha, evaluated after 13 days, read-out: Pre-emergence activity LOLPE (100=total damage to plant; 0=no damage to plant)
Procedure: as §1, §2

[5] = system: Alopecurus myosuroides (ALOMY); test: Post-emergence herbicidal activity, glasshouse pot test; settings: Alopecurus myosuroides, 312 h, rate 250 g/ha, evaluated after 13 days, read-out: Post-emergence activity ALOMY (100=total damage to plant; 0=no damage to plant)
Procedure: as §1, §2

Avena fatua (AVEFA) [6] = test: as above; settings: Avena fatua, 312 h, rate 250 g/ha, evaluated after 13 days, read-out: Post-emergence activity AVEFA (100=total damage to plant; 0=no damage to plant)
Procedure: as §1, §2

[7] = system: Echinochloa crus-galli (ECHCG); test: as above; settings: Echinochloa crus-galli, 312 h, rate 250 g/ha, evaluated after 13 days, read-out: Post-emergence activity ECHCG (100=total damage to plant; 0=no damage to plant)
Procedure: as §1, §2

Lolium perenne (LOLPE) [8] = test: as above; settings: Lolium perenne, 312 h, rate 250 g/ha, evaluated after 13 days, read-out: Post-emergence activity LOLPE (100=total damage to plant; 0=no damage to plant)
Procedure: as §1, §2

SMILES	pest or weed control at 250 g/ha ([1]; pre-emergence spray)	pest or weed control at 250 g/ha (Avena fatua (AVEFA) [2]; pre-emergence spray)	pest or weed control at 250 g/ha ([3]; pre-emergence spray)	pest or weed control at 250 g/ha (Lolium perenne (LOLPE) [4]; pre-emergence spray)	pest or weed control at 250 g/ha ([5]; glasshouse)	pest or weed control at 250 g/ha (Avena fatua (AVEFA) [6]; glasshouse)	pest or weed control at 250 g/ha ([7]; glasshouse)	pest or weed control at 250 g/ha (Lolium perenne (LOLPE) [8]; glasshouse)	pest or weed control at 250 g/ha ([1]; pre-emergence)	pest or weed control at 250 g/ha (Avena fatua (AVEFA) [2]; pre-emergence)	pest or weed control at 250 g/ha ([3]; pre-emergence)	pest or weed control at 250 g/ha (Lolium perenne (LOLPE) [4]; pre-emergence)	pest or weed control at 250 g/ha [5]	pest or weed control at 250 g/ha (Avena fatua (AVEFA) [6])	pest or weed control at 250 g/ha [7]	pest or weed control at 250 g/ha (Lolium perenne (LOLPE) [8])
CCc1ccc(Oc2ncc(C(F)(F)F)cc2Cl)cc1C1=C(O)CC(C)(C)CC1=O [Example A-86]	90%	100%	100%	100%	90%	100%	100%	70%	–	–	–	–	–	–	–	–
CC1(C)OC(C)(C)C(O)=C(c2cc(Oc3ccc(Cl)cc3)ccc2C2CC2)C1=O [Example A-349]	–	–	–	–	–	–	–	–	40%	10%	100%	90%	60%	0%	100%	80%
CCc1ccc(Oc2nc(C)c(Cl)c(N)n2)cc1C1=C(O)C(C)(C)OC(C)(C)C1=O [Example A-81]	30%	10%	90%	40%	50%	50%	70%	30%	–	–	–	–	–	–	–	–
CCc1ccc(Oc2ccc(Br)cc2)cc1C1=C(O)CC(C)(C)CC1=O [Example A-48]	100%	30%	100%	70%	80%	40%	100%	70%	–	–	–	–	–	–	–	–
CC1(C)OC(C)(C)C(O)=C(c2cc(Oc3ccc4cc(Cl)ccc4n3)ccc2C2CC2)C1=O [Example A-312]	70%	70%	100%	100%	100%	100%	100%	100%	–	–	–	–	–	–	–	–
CC1(C)OC(C)(C)C(O)=C(c2cc(Oc3ccc(Cl)cc3F)ccc2C2CC2)C1=O [Example A-348]	–	–	–	–	–	–	–	–	60%	10%	100%	100%	100%	60%	100%	90%
CCc1ccc(Oc2nc3ccccc3nc2C(F)(F)F)cc1C1=C(O)C(C)(C)OC(C)(C)C1=O [Example A-174]	50%	40%	100%	70%	90%	100%	100%	90%	–	–	–	–	–	–	–	–
CCc1ccc(Oc2ccc(OC(F)(F)F)cc2)cc1C1=C(O)C(C)(C)OC(C)(C)C1=O [Example A-242]	70%	40%	–	80%	100%	100%	100%	100%	–	–	–	–	–	–	–	–
CCc1ccc(Oc2ccc([N+](=O)[O-])cc2C(F)(F)F)cc1C1=C(O)CC2(CCOCC2)CC1=O [Example A-309]	40%	0%	70%	20%	50%	70%	100%	50%	–	–	–	–	–	–	–	–
CCc1ccc(Oc2nc3c(Cl)cc(Cl)cc3s2)cc1C1=C(O)C(C)(C)OC(C)(C)C1=O [Example A-221]	60%	40%	70%	60%	80%	50%	100%	90%	–	–	–	–	–	–	–	–
CCc1ccc(Oc2ccc(Cl)cc2)cc1C1=C(O)C(C)(C)OC(C)(C)C1=O [Example A-4]	40%	0%	100%	–	80%	0%	100%	–	–	–	–	–	–	–	–	–
CCc1ccc(Oc2ccc(Cl)cc2C)cc1C1=C(O)C(C)(C)OC(C)(C)C1=O [Example A-180]	0%	0%	–	0%	0%	0%	30%	10%	–	–	–	–	–	–	–	–
CCc1ccc(Oc2ccc(F)c(C)c2)cc1C1=C(O)C(C)(C)OC(C)(C)C1=O [Example A-179]	0%	0%	–	0%	0%	0%	20%	20%	–	–	–	–	–	–	–	–
Cc1ccc(Oc2ccc(Cl)cc2Cl)cc1C1=C(O)C(C)(C)OC(C)(C)C1=O [Example A-2]	0%	0%	0%	–	60%	50%	90%	–	–	–	–	–	–	–	–	–
CCc1ccc(Oc2ccccc2Cl)cc1C1=C(O)C(C)(C)OC(C)(C)C1=O [Example A-6]	0%	0%	30%	–	0%	0%	70%	–	–	–	–	–	–	–	–	–
CCc1ccc(Oc2cccc(Cl)c2)cc1C1=C(O)C(C)(C)OC(C)(C)C1=O [Example A-5]	0%	0%	90%	–	20%	0%	90%	–	–	–	–	–	–	–	–	–
CCc1ccc(Oc2ccc(Br)cc2F)cc1C1=C(O)C(C)(C)OC(C)(C)C1=O [Example A-7]	60%	60%	100%	–	90%	70%	100%	–	–	–	–	–	–	–	–	–
CCc1ccc(Oc2cnc3cc(Cl)ccc3n2)cc1C1=C(O)[C@@H]2CC[C@](C)(C1=O)C2(C)C [Example A-243]	90%	80%	–	100%	100%	100%	100%	100%	–	–	–	–	–	–	–	–
Cc1ccc(Oc2ccc(Cl)cc2)cc1C1=C(O)C(C)(C)OC(C)(C)C1=O [Example A-1]	0%	0%	0%	–	20%	0%	60%	–	–	–	–	–	–	–	–	–
